Reference: patent publication US10723695B2, “Microbiocidal phenylamidine derivatives” (SYNGENTA PARTICIPATIONS AG, priority 2015, dated 2020)

How the values were obtained:
[1] = system: Puccinia recondita f. sp. tritici; test: Puccinia recondita f. sp. tritici / wheat / leaf disc curative (brown rust); type: in vivo; details: foliar, 24 h, wheat leaf segments cv. Kanzler, curative (applied 1 day after inoculation), compared to untreated control leaf disks, read-out: disease control
Description: Puccinia recondita f. sp. tritici/Wheat/Leaf Disc Curative (Brown Rust) Wheat leaf segments cv. Kanzler are placed on agar in multiwell plates (24-well format). The leaf segments are inoculated with a spore suspension of the fungus. Plates were stored in darkness at 19° C. and 75% rh. The formulated test compound diluted in water was applied 1 day after inoculation.

[2] = system: Puccinia recondita f. sp. tritici; test: Puccinia recondita f. sp. tritici / wheat / leaf disc preventative (brown rust); type: in vivo; details: foliar, wheat leaf segments cv. Kanzler, compared to untreated control leaf disks, read-out: disease control
Procedure, shortened: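 Wheat leaf segments (cv. Kanzler) on agar were sprayed preventatively with formulated compound diluted in water and inoculated with spores 1 day later. They were incubated at 19 °C, 75% rh, 12 h light/12 h dark. Percent disease control versus untreated was scored 7-9 days after application.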

Phakopsora pachyrhizi = Phakopsora pachyrhizi / soybean / leaf disk preventative (soybean rust); type: in vivo; details: foliar, soybean leaf disks, compared to untreated control leaf disks, read-out: disease control
Procedure, shortened: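 Four-week-old soybean plants sprayed with formulated compound in water; leaf disks cut 1 day later, inoculated on the lower surface with spore suspension. Held 24-36 h dark at 20° C, 75% rh, then 20° C with 12 h light/day; % diseased disk area scored 12-14 days after application.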

[3] = system: Blumeria graminis f. sp. tritici (Erysiphe graminis f. sp. tritici); test: Blumeria graminis f. sp. tritici / wheat / leaf disc preventative (powdery mildew on wheat); type: in vivo; details: foliar, wheat leaf segments cv. Kanzler, compared to untreated control leaf disks, read-out: disease control
Source text: Blumeria graminis f. sp. tritici (Erysiphe graminis f. sp. tritici)/Wheat/Leaf Disc Preventative (Powdery Mildew on Wheat) Wheat leaf segments cv. Kanzler were placed on agar in a multiwell plate (24-well format) and sprayed with the formulated test compound diluted in water. The leaf disks were inoculated by shaking powdery mildew infected plants above the test plates 1 day after application.

Row | SMILES | melting point [°C] | pest or weed control at 200 ppm [1] [%] | pest or weed control at 200 ppm [2] [%] | pest or weed control at 200 ppm (Phakopsora pachyrhizi) [%] | pest or weed control at 200 ppm [3] [%]
1 | CCN(C)/C=N/c1cc(OC)c(C(O)(c2cccc(C)c2)C(F)(F)F)cc1C (stereo not drawn) [Compound E1.016] | 125 to 127 | ≥ 80 | ≥ 80 | ≥ 80 | ≥ 80
2 | CCN(C)/C=N/c1cc(OC)c(C(O)(c2ccc(F)cc2F)C(F)(F)F)cc1C (stereo not drawn) [Compound E1.018] | 113 to 114 | ≥ 80 | ≥ 80 | ≥ 80 | ≥ 80
3 | CCN(C)/C=N/c1cc(OC)c(C(O)(c2ccc(Cl)cc2Cl)C(F)(F)F)cc1C (stereo not drawn) [Compound E1.017] | 119 to 121 | ≥ 80 | ≥ 80 | ≥ 80 | ≥ 80
4 | CCN(C)/C=N/c1cc(OC)c(C(O)(c2ccccc2Cl)C(F)(F)F)cc1C (stereo not drawn) [Compound E1.033] | 97 to 100 | ≥ 80 | ≥ 80 | ≥ 80 | ≥ 80
5 | CCN(C)/C=N/c1cc(OC)c(C(O)(c2cccc(C#N)c2)C(F)(F)F)cc1C (stereo not drawn) [Compound E1.022] | 38 to 40 | ≥ 80 | ≥ 80 | ≥ 80 | ≥ 80
6 | CCN(C)/C=N/c1cc(OC)c(C(O)(c2cccc(C(F)(F)F)c2)C(F)(F)F)cc1C (stereo not drawn) [Compound E1.010] | 121 to 123 | ≥ 80 | ≥ 80 | ≥ 80 | ≥ 80
7 | CCN(C)/C=N/c1cc(OC)c(C(O)(Cc2cc(C)ncn2)C(F)(F)F)cc1C (stereo not drawn) [Compound E1.099] | 82 to 85 | ≥ 80 | ≥ 80 | ≥ 80 | ≥ 80
8 | C=CCC(O)(c1cc(C)c(/N=C/N(C)CC)cc1OC)C(F)(F)F (stereo not drawn) [Compound E1.071] | 123 to 127 | ≥ 80 | ≥ 80 | ≥ 80 | ≥ 80
9 | CCN(C)/C=N/c1cc(OC)c(C(O)(c2cc(F)ccc2F)C(F)(F)F)cc1C (stereo not drawn) [Compound E1.031] | 137 to 140 | ≥ 80 | ≥ 80 | ≥ 80 | ≥ 80
10 | CCN(C)/C=N/c1cc(OC)c(C(O)(c2ccccc2)C(F)(F)F)cc1C (stereo not drawn) [Compound E1.006] | 160 to 162 | ≥ 80 | ≥ 80 | ≥ 80 | ≥ 80
11 | CCN(C)/C=N/c1cc(OC)c(C(O)(c2ccccc2F)C(F)(F)F)cc1C (stereo not drawn) [Compound E1.034] | 96 to 98 | ≥ 80 | ≥ 80 | ≥ 80 | ≥ 80
12 | CCN(C)/C=N/c1cc(OC)c(C(O)(Cc2cccc(OC)n2)C(F)(F)F)cc1C (stereo not drawn) [Compound E1.100] | 92 to 95 | ≥ 80 | ≥ 80 | ≥ 80 | ≥ 80
13 | CCN(C)/C=N/c1cc(OC)c(C(O)(c2ccc(OC)cc2)C(F)(F)F)cc1C (stereo not drawn) [Compound E1.011] | 67 to 71 | ≥ 80 | ≥ 80 | ≥ 80 | ≥ 80
14 | CCN(C)/C=N/c1cc(OC)c(C(O)(c2ccc(F)cc2)C(F)(F)F)cc1C (stereo not drawn) [Compound E1.004] | 102 to 104 | ≥ 80 | ≥ 80 | ≥ 80 | ≥ 80

Further lines, with some results ahead:

Row | melting point [°C] | SMILES | pest or weed control at 200 ppm [1] [%] | pest or weed control at 200 ppm [2] [%] | pest or weed control at 200 ppm (Phakopsora pachyrhizi) [%] | pest or weed control at 200 ppm [3] [%]
15 | 110.5 to 111.7 | COc1cc(/N=C/N(C)C(C)C)c(C)cc1[C@](O)(c1ccccc1)C(F)(F)F [Compound E1.027] | ≥ 80 | ≥ 80 | ≥ 80 | ≥ 80
16 | 110.5 to 111.7 | COc1cc(/N=C/N(C)C(C)C)c(C)cc1[C@@](O)(c1ccccc1)C(F)(F)F [Compound E1.026] | ≥ 80 | ≥ 80 | ≥ 80 | ≥ 80
17 | 64 to 72 | CCN(C)/C=N/c1cc(OC)c(C(O)(C2CC2)C(F)(F)F)cc1C (stereo not drawn) [Compound E1.052] | ≥ 80 | ≥ 80 | ≥ 80 | ≥ 80
18 | 45 to 50 | C=CCC(O)(c1cc(C)c(/N=C/N(C)C(C)C)cc1OC)C(F)(F)F (stereo not drawn) [Compound E1.084] | ≥ 80 | ≥ 80 | ≥ 80 | ≥ 80
19 | 110 to 113 | C=C(C)C(O)(c1cc(C)c(/N=C/N(C)C(C)C)cc1OC)C(F)(F)F (stereo not drawn) [Compound E1.081] | ≥ 80 | ≥ 80 | ≥ 80 | ≥ 80
20 | 73 to 76 | CCC(O)(c1cc(C)c(/N=C/N(C)C(C)C)cc1OC)C(F)(F)F (stereo not drawn) [Compound E1.063] | ≥ 80 | ≥ 80 | ≥ 80 | ≥ 80
21 | 90 to 93 | COc1cc(/N=C/N(C)C(C)C)c(C)cc1C(O)(C1CC1)C(F)(F)F (stereo not drawn) [Compound E1.064] | ≥ 80 | ≥ 80 | ≥ 80 | ≥ 80
